# Reference: publication PMC7914897, “Cytotoxic Potential of a-Azepano- and 3-Amino-3,4-SeCo-Triterpenoids” (International Journal of Molecular Sciences, 2021)
# What was measured:
# [1] = test system: CAKI-1 (Renal cancer); assay: NCI-60 screen (SRB, 48 h)
# [2] = test system: NCI-H23 (NSC lung cancer); assay: NCI-60 screen (SRB, 48 h); conditions: Homo sapiens
# [3] = test system: LOX IMVI (Melanoma); assay: NCI-60 screen (SRB, 48 h); type: cell-based; conditions: Homo sapiens
# [4] = test system: A549/ATCC (NSC lung cancer); assay: NCI-60 screen (SRB, 48 h); conditions: Homo sapiens
# [5] = test system: Ovarian Cancer subpanel; assay: NCI-60 screen, subpanel; conditions: Homo sapiens
# [6] = test system: SF-268 (CNS cancer); assay: NCI-60 screen (SRB, 48 h); conditions: Homo sapiens
# [7] = test system: SF-539 (CNS cancer); assay: NCI-60 screen (SRB, 48 h); conditions: Homo sapiens
# [8] = test system: RXF 393 (Renal cancer); assay: NCI-60 screen (SRB, 48 h); conditions: Homo sapiens
# [9] = test system: A375 (malignant melanoma); assay: SRB cytotoxicity assay, 72 h; type: cell-based, human; conditions: Homo sapiens, A-375, 72 h, A375, 72 h, cut-off 30 µM; read-out: EC50
# How it was run: (§1)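 Absorbance at 570 nm of SRB-stained cells gives % survival vs untreated controls, from which EC50 is determined. Treatment: 0–30 µM serial dilutions, 72 h, beginning 24 h post-seeding; DMSO ≤0.5%. TCA (10%) fixation, acetic acid wash.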
# [10] = test system: A2780 (ovarian carcinoma); assay: SRB cytotoxicity assay, 72 h; type: cell-based, human; conditions: Homo sapiens; A2780, 72 h, cut-off 30 µM; read-out: EC50
# How it was run: as §1
# [11] = test system: HT29 (colorectal carcinoma); assay: SRB cytotoxicity assay, 72 h; type: cell-based, human; conditions: Homo sapiens, HT-29; HT29, 72 h, cut-off 30 µM; read-out: EC50
# How it was run: as §1
# [12] = test system: FaDu (hypopharyngeal carcinoma); assay: SRB cytotoxicity assay, 72 h; type: cell-based, human; conditions: Homo sapiens, cut-off 30 µM, read-out: EC50
# How it was run: as §1
# [13] = test system: MCF-7 (breast carcinoma); assay: SRB cytotoxicity assay, 72 h; type: cell-based, human; conditions: Homo sapiens, MCF7; MCF-7, 72 h, cut-off 30 µM; read-out: EC50
# How it was run: as §1
# [14] = test system: Breast cancer subpanel; assay: NCI-60 screen, subpanel; conditions: Homo sapiens
# [15] = test system: SF-295 (CNS cancer); assay: NCI-60 screen (SRB, 48 h); conditions: Homo sapiens
# [16] = test system: NCI-H460 (NSC lung cancer); assay: NCI-60 screen (SRB, 48 h); conditions: Homo sapiens
# [17] = test system: M14 (Melanoma); assay: NCI-60 screen (SRB, 48 h); conditions: Homo sapiens
# [18] = test system: NCI-H522 (NSC lung cancer); assay: NCI-60 screen (SRB, 48 h); conditions: Homo sapiens
# [19] = test system: SK-MEL-2 (Melanoma); assay: NCI-60 screen (SRB, 48 h); conditions: Homo sapiens
# [20] = test system: OVCAR-5 (Ovarian cancer); assay: NCI-60 screen (SRB, 48 h)
# [21] = test system: NSC lung cancer subpanel; assay: NCI-60 screen, subpanel; conditions: Homo sapiens
# [22] = test system: SK-MEL-28 (Melanoma); assay: NCI-60 screen (SRB, 48 h); conditions: Homo sapiens
# [23] = test system: U251 (CNS cancer); assay: NCI-60 screen (SRB, 48 h); conditions: Homo sapiens
# [24] = test system: CNS cancer subpanel; assay: NCI-60 screen, subpanel; conditions: Homo sapiens
smiles,measurement,setting,value
"CC1(C)NCCC[C@]2(C)[C@H]3C=CC4=C5C[C@@](C)(CO)CC[C@]5(C)CC[C@@]4(C)[C@]3(C)CC[C@@H]12 [Compound 6, azepano-glycyrrhetol-diene]",Growth % of the Most Sensitive Cell Lines,"[1]; CAKI-1, 1 dose 10 µM",−96.49%
same,GI50,"[1]; Homo sapiens, CAKI-1",3.7 µM
same,IC (TGI),"[1]; Homo sapiens, CAKI-1, 48 h, read-out: TGI",13.8 µM
same,CC50,"[1]; Homo sapiens, CAKI-1, read-out: LC50",39.3 µM
same,GI50,[2]; NCI-H23,3.15 µM
same,IC (TGI),"[2]; NCI-H23, 48 h, read-out: TGI",12.5 µM
same,CC50,"[2]; NCI-H23, read-out: LC50",40 µM
same,IC (TGI),[3]; 48 h,6.76 µM
same,GI50,[3]; read-out: GI50,2.49 µM
same,CC50,[3]; read-out: LC50 (the source's name),29 µM
same,GI50,[4]; A549,1.89 µM
same,IC (TGI),"[4]; A549, 48 h, read-out: TGI",3.71 µM
same,CC50,"[4]; A549, read-out: LC50",7.31 µM
same,IC (TGI),"[5]; 48 h, read-out: TGI MG_MID",15.4 µM
same,GI50,[5]; read-out: GI50 MG_MID,4.67 µM
same,CC50,[5]; read-out: LC50 MG_MID,41.9 µM
same,GI50,[6]; SF-268,3.27 µM
same,IC (TGI),"[6]; SF-268, 48 h, read-out: TGI",11.6 µM
same,CC50,"[6]; SF-268, read-out: LC50",49.6 µM
same,GI50,[7]; SF-539,2.69 µM
same,IC (TGI),"[7]; SF-539, 48 h, read-out: TGI",9.26 µM
same,CC50,"[7]; SF-539, read-out: LC50",33 µM
same,GI50,[8]; RXF 393,1.84 µM
same,IC (TGI),"[8]; RXF 393, 48 h, read-out: TGI",4.15 µM
same,CC50,"[8]; RXF 393, read-out: LC50",9.35 µM
same,EC50,[9],6.65 ± 0.3 µM
same,EC50,[10],3.93 ± 0.5 µM
same,EC50,[11],4.84 ± 0.5 µM
same,EC50,[12],4.44 ± 0.6 µM
same,EC50,[13],7.1 ± 0.5 µM
same,IC (TGI),"[14]; 48 h, read-out: TGI MG_MID",19.1 µM
same,GI50,[14]; read-out: GI50 MG_MID,6.68 µM
same,CC50,[14]; read-out: LC50 MG_MID,55.1 µM
same,GI50,[15]; SF-295,2 µM
same,IC (TGI),"[15]; SF-295, 48 h, read-out: TGI",4.04 µM
same,CC50,"[15]; SF-295, read-out: LC50",8.15 µM
same,GI50,[16]; NCI-H460,4.17 µM
same,IC (TGI),"[16]; NCI-H460, 48 h, read-out: TGI",15.2 µM
same,CC50,"[16]; NCI-H460, read-out: LC50",46.2 µM
same,GI50,[17]; M14,3.91 µM
same,IC (TGI),"[17]; M14, 48 h, read-out: TGI",14.8 µM
same,CC50,"[17]; M14, read-out: LC50",41.5 µM
same,GI50,[18]; NCI-H522,2.38 µM
same,IC (TGI),"[18]; NCI-H522, 48 h, read-out: TGI",7.31 µM
same,CC50,"[18]; NCI-H522, read-out: LC50",31.7 µM
same,GI50,[19]; SK-MEL-2,3.31 µM
same,IC (TGI),"[19]; SK-MEL-2, 48 h, read-out: TGI",12.2 µM
same,CC50,"[19]; SK-MEL-2, read-out: LC50",38.9 µM
same,GI50,"[20]; Homo sapiens, OVCAR-5",1.24 µM
same,IC (TGI),"[20]; Homo sapiens, OVCAR-5, 48 h, read-out: TGI",25.3 µM
same,CC50,"[20]; Homo sapiens, OVCAR-5, read-out: LC50",51.6 µM
same,Growth % of the Most Sensitive Cell Lines,"[20]; OVCAR-5, 1 dose 10 µM",−98.74%
same,IC (TGI),"[21]; 48 h, read-out: TGI MG_MID",11.2 µM
same,GI50,[21]; read-out: GI50 MG_MID,3.17 µM
same,CC50,[21]; read-out: LC50 MG_MID,39.1 µM
same,GI50,[22]; SK-MEL-28,5.87 µM
same,IC (TGI),"[22]; SK-MEL-28, 48 h, read-out: TGI",18.4 µM
same,CC50,"[22]; SK-MEL-28, read-out: LC50",44 µM
same,GI50,[23]; U-251,4.17 µM
same,IC (TGI),"[23]; U-251, 48 h, read-out: TGI",15.9 µM
same,CC50,"[23]; U-251, read-out: LC50",45.5 µM
same,IC (TGI),"[24]; 48 h, read-out: TGI MG_MID",13.5 µM
same,GI50,[24]; read-out: GI50 MG_MID,4.53 µM
same,CC50,[24]; read-out: LC50 MG_MID,39.7 µM
